Measurements as given in patent US20010002257A1, “Composition comprising a lipoamino acid and the constituents of a tannin-rich plant extract, and cosmetic use thereof” (priority 1997, published 2001).

Tests used:
lipase = assay: Anti-lipase test: titration of free fatty acids formed from triglycerides; format: biochemical
Method: The test involves assaying the free fatty acids obtained by degradation of the triglycerides with lipase. A known amount of triglycerides (“Lipase Substrate” sold by the company Sigma), a known amount of lipase (“Enzyme Control 2E” sold by the company Sigma) and the test composition are placed together in a tube. After an incubation period of three hours at 37° C., the enzymatic reaction is stopped and the free fatty acids formed are assayed by titration with 0.05 M sodium hydroxide. The results are expressed as a percentage of inhibition of the enzyme by the composition considered, by comparing it with a control test.

Staphylococcus aureus = assay: Minimum inhibitory concentration at pH 5 on growth of Staphylococcus aureus; format: cell-based; settings: Staph. Aureus, pH 5, product alone
Method: (§1) a) The minimum inhibitory concentration, at pH 5, of composition according to the invention on the growth of the strains below was determined:
(§2) b) The minimum inhibitory concentration, at pH 5, on the growth of the same strains for an octanoylglycine+zinc gluconate combination was determined.

Propionibacterium acnes = assay: Minimum inhibitory concentration at pH 5 on growth of Propionibacterium acnes; format: cell-based; settings: P. acnes, pH 5, product alone
Method: as §1, §2

Staphylococcus epidermis = assay: Minimum inhibitory concentration at pH 5 on growth of Staphylococcus epidermis; format: cell-based; settings: Staph. Epidermis, pH 5, product alone
Method: as §1, §2

[1] = molecular target: T1, human leukocytic elastase (HLE) (Homo sapiens, UniProt P08246); assay: Anti-elastase test: hydrolysis of N-methoxysuccinyl-alanine-proline-valine-para-nitroanilide, spectrophotometry at 410 nm; format: biochemical
T1 sequence (P08246 30-267): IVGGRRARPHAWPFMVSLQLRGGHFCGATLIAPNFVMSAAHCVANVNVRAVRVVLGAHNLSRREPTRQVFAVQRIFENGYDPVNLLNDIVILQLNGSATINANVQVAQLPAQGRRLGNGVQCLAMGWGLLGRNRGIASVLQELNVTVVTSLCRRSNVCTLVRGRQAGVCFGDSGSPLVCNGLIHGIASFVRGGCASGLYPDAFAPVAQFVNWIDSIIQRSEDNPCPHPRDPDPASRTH
Method: Such a substance can be, for example, N-methoxysuccinyl-alanine-proline-valine-para-nitroanilide, a normally colourless substance which releases, by hydrolysis with human leukocytic elastase, a coloured product, para-nitroaniline, whose appearance kinetics can be monitored by spectrophotometry at 410 nm.
The reaction is carried out in a spectrophotometer thermostatically set at 25° C. and equipped with a sample changer. All of the kinetics are carried out a minimum of three times, the average and the standard deviation then being calculated for the three values obtained.
The presence of a molecule with anti-elastase activity is reflected by a limitation of the appearance of the coloured product and the anti-elastase effect can then be calculated relative to a control curve obtained in the absence or the said molecule.
A correlation thus exists between the percentage of inhibition of the appearance of the coloured product by the test compound and the percentage of inhibition of human leukocytic elastase.

percentage of inhibition of lipase (lipase; 1.6% octanoylglycine, 3 hours at 37° C.)	% inhibition of elastase ([1]; 0.625% octanoylglycine alone)	inhibitory activity on elastase (in words) ([1]; at the concentrations tested)	Compound	percentage of inhibition of lipase (lipase; 0.13% solution of zinc gluconate, same operating conditions)	minimum inhibitory concentration (Staphylococcus aureus)	minimum inhibitory concentration (Propionibacterium acnes)	minimum inhibitory concentration (Staphylococcus epidermis)
			zinc gluconate	40%	0.5%	1%	10.5%
44%	5%	no inhibitory activity	CCCCCCCC(=O)NCC(=O)O [octanoylglycine]		0.25%	0.5%	0.20%
